# Values joined by “and” are separate entries in the source; they are usually repeats but may differ in a detail not shown here. Equal entries are not always repeated. “Also recorded” adds a separate entry of the source. Marks after values point to notes of the source that are not given here. Square brackets hold non-standard residues; d marks the D form. Peptide text beside a SMILES is read from it.
# Experiments:
# Aβ = test: Reduction of Aβ in retinal cells differentiated from iPSC derived from Alzheimer's disease patients; format: cell-based
# Text: The accumulation of Aβ in the retina was studied in this example. Retinal cells were differentiated from induced pluripotent stem (iPSC) cells derived from Alzheimer's disease patients.
# [1] = Pharmacokinetics study in rats, CSF; format: in vivo; design: CSF concentration, Mean IV / CSF concentration, Mean SC: unit not given here; conditions: rat; for CSF concentration, Mean IV: 10 mg/kg IV; for CSF concentration, Mean SC: 10 mg/kg SC
# Description: (§1) An in-vivo study was carried out in rats to determine the pharmacokinetics (PK) of peptides P8, 8M1D and 8M2D in plasma and CSF. Each peptide was assessed through two dosage routes, intravenous (IV) and subcutaneous (SC). Three rats were assigned to each dose group with each peptide. Total of twelve rats per peptide were used.
# CSF collection was performed by first anesthetizing animals at specified time points (see Table 5) with a mixture of 80 mg/kg ketamine and 8 mg/kg xylazine. The depth of anesthesia was monitored by toe pinches. CSF was collected via the cisterna magna (˜0.05 mL), and it was split into equal aliquots, frozen, and stored at −60 to −80° C.
# [2] = Delivery to brain in transgenic mice (brain concentrations); format: in vivo; design: Brain Concentration / Brain Concentration, Mean: unit not given here
# Description: Critical to the development of any therapeutic for diseases like AD is the requirement that it can be delivered to the brain. Delivery to brain and efficacy of P8 and 8M2D in reducing Aß was analyzed in the transgenic mice described in Section 6.3 above. […]
# [3] = Pharmacokinetics study in rats, plasma; format: in vivo; conditions: rat; for plasma concentration: individual rats
# Description: as §1
# (§2) Blood was collected through jugular vein cannulas, and the samples were collected into tubes with K2EDTA. After centrifuging at a temperature of 2 to 8° C. at 4,000×g for 5 minutes, the resulting plasma was split into equal aliquots, frozen, and stored at −60 to −80° C. One aliquot was for PK analysis and the other was for Aβ analysis (see Example 4).
# Aβ40 = test: Efficacy in reducing Aβ40 in rat plasma (ELISA); format: in vivo; conditions: for reduction in Aβ40 / Percent Decrease in Aβ 40 in Rat Plasma: 10 mg/kg SC; for Percent Decrease in Aβ 40 in Rat Plasma: mean of 3 rats, negative = decrease
# Description: as §2
# Rats (n=3 per peptide) were administered with P8, 8M1D, or 8M2D (10 mg/kg) subcutaneously, and plasma were collected at 0, 6, 12, and 24 h after dosing and Aβ40 analysis was carried out by ELISA (Invitrogen).
# Aß = test: Efficacy in reducing Aß in APP transgenic mice (analysis in CSF and brain); format: in vivo; conditions: Tg mice over-expressing Aß
# Description: Critical to the development of any therapeutic for diseases like AD is the requirement that it can be delivered to the brain. Delivery to brain and efficacy of P8 and 8M2D in reducing Aß was analyzed in the transgenic mice described in Section 6.3 above.
# The maximum efficacious dose of 8M2D in Tg mice over-expressing Aß is at just over 50 mg/kg. This gives a 65% reduction in Aß 42. […] Experiments are performed to establish the minimum efficacious dose in Tg mice.
compound,measurement,setting,value
"CC(=O)N[C@H](CC(=O)O)C(=O)N[C@@H](CCC(=O)O)C(=O)N[C@@H](CCC(=O)O)C(=O)N[C@@H](CCC(=O)O)C(=O)N[C@@H](CC(=O)O)C(=O)N[C@@H](CCC(=O)O)C(=O)N[C@@H](CCC(=O)O)C(=O)N[C@@H](CC(C)C)C(N)=O [8M2D, Ac-dEEEDEEL-NH2] (Ac-[dD]EEEDEEL-NH2)",production of Aβ in retinal cells in the presence of the peptide (in words),Aβ,reduced
same,exposure in CSF compared with P8 (in words),"[1]; 10 mg/kg IV and SC, at Cmax and most subsequent time points, 10 mg/kg",better exposures than P8; also recorded: higher exposure than P8
same,"CSF concentration, Mean IV",[1]; 0 hr,0
same,"CSF concentration, Mean IV",[1]; 0.5 hr,104
same,"CSF concentration, Mean IV",[1]; 1 hr,55.6
same,"CSF concentration, Mean IV",[1]; 2 hr,68
same,"CSF concentration, Mean IV",[1]; 4 hr,11.5
same,"CSF concentration, Mean IV",[1]; 8 hr,1.75
same,"CSF concentration, Mean IV",[1]; 12 hr,0.378
same,"CSF concentration, Mean IV",[1]; 24 hr,1.2
same,"CSF concentration, Mean SC",[1]; 0 hr,0
same,"CSF concentration, Mean SC",[1]; 0.5 hr,59
same,"CSF concentration, Mean SC",[1]; 1 hr,53.4
same,"CSF concentration, Mean SC",[1]; 2 hr,172
same,"CSF concentration, Mean SC",[1]; 4 hr,13.3
same,"CSF concentration, Mean SC",[1]; 8 hr,15.3
same,"CSF concentration, Mean SC",[1]; 12 hr,0.113
same,"CSF concentration, Mean SC",[1]; 24 hr,0
same,delivery to the APPTg mouse brain (in words),[2]; SC administration,in sufficient amounts to reduce Aß in the brain
same,Brain Concentration,"[2]; transgenic mice, SC, dose 10 mg/kg, individual animals",BQL
same,"Brain Concentration, Mean","[2]; transgenic mice, SC, dose 50 mg/kg, N 2",9.06
same,"Brain Concentration, Mean","[2]; transgenic mice, SC, dose 250 mg/kg, N 5",15.4
same,time after dosing at which detectable in plasma,[3]; 10 mg/kg IV and SC,≥ 6 h
same,exposure in plasma compared with P8 (in words),"[3]; 10 mg/kg IV and SC, at Cmax and most subsequent time points",better exposures than P8
same,plasma concentration,"[3]; 10 mg/kg IV, 0 hr (pre-dose)",BQL
same,plasma concentration,"[3]; 10 mg/kg IV, 0.167 hr, 10 mg/kg, in ng/mL (unit assumed)","20,900 and 21,000 and 23,400"
same,plasma concentration,"[3]; 10 mg/kg IV, 0.5 hr, 10 mg/kg, in ng/mL (unit assumed)","5,620 and 5,680 and 5,940"
same,plasma concentration,"[3]; 10 mg/kg IV, 1 hr, 10 mg/kg, in ng/mL (unit assumed)","1,450 and 1,040 and 1,190"
same,plasma concentration,"[3]; 10 mg/kg IV, 2 hr, 10 mg/kg, in ng/mL (unit assumed)",417 and 114 and 136
same,plasma concentration,"[3]; 10 mg/kg IV, 4 hr, 10 mg/kg",10.2 and 7.54 ^b and 8.29 ^b
same,plasma concentration,"[3]; 10 mg/kg IV, 6 hr, 10 mg/kg",2.09 ^b and 1.81 ^b and BQL
same,plasma concentration,"[3]; 10 mg/kg IV, 8 hr",BQL
same,plasma concentration,"[3]; 10 mg/kg IV, 12 hr",BQL
same,plasma concentration,"[3]; 10 mg/kg IV, 24 hr",BQL
same,plasma concentration,"[3]; 10 mg/kg SC, 0 hr (pre-dose)",BQL
same,plasma concentration,"[3]; 10 mg/kg SC, 0.167 hr, 10 mg/kg, in ng/mL (unit assumed)","16,200 and 13,500 and 13,800 ^a"
same,plasma concentration,"[3]; 10 mg/kg SC, 0.5 hr, 10 mg/kg, in ng/mL (unit assumed)","9,030 and 9,010 and 7,190"
same,plasma concentration,"[3]; 10 mg/kg SC, 1 hr, 10 mg/kg, in ng/mL (unit assumed)","3,250 and 4,160 and 3,110"
same,plasma concentration,"[3]; 10 mg/kg SC, 2 hr, 10 mg/kg, in ng/mL (unit assumed)","609 and 987 and 1,040"
same,plasma concentration,"[3]; 10 mg/kg SC, 4 hr, 10 mg/kg, in ng/mL (unit assumed)",59.2 and 82.8 and 125
same,plasma concentration,"[3]; 10 mg/kg SC, 6 hr, 10 mg/kg",3.77 ^b and 9.84 ^b and 21.6
same,plasma concentration,"[3]; 10 mg/kg SC, 8 hr, 10 mg/kg",1.61 ^b and 4.37 ^b and 5.19 ^b
same,plasma concentration,"[3]; 10 mg/kg SC, 12 hr",BQL
same,plasma concentration,"[3]; 10 mg/kg SC, 24 hr",BQL
same,reduction in Aβ40,"Aβ40; rat plasma, 12 hr post dosing",about 35%
same,reduction in Aβ40,"Aβ40; rat plasma, 24 h post dosing",about 27%
same,reduction of Aβ40 compared with the other peptides (in words),"Aβ40; rat plasma, SC",more potent than P8 and 8M1D; also recorded: more effectively than P8 and 8M1D
same,Percent Decrease in Aβ 40 in Rat Plasma,Aβ40; 0 h,0.00%
same,Percent Decrease in Aβ 40 in Rat Plasma,Aβ40; 6 h,−26.62%
same,Percent Decrease in Aβ 40 in Rat Plasma,Aβ40; 12 h,−35.27%
same,Percent Decrease in Aβ 40 in Rat Plasma,Aβ40; 24 h,−27.36%
same,efficacy on increasing the dose 5× (in words),Aß; SC,only a marginal increase in efficacy
same,maximum efficacious dose,Aß; SC dosing,over 50 mg/kg
same,reduction in Aß 42,"Aß; SC, at the maximum efficacious dose (just over 50 mg/kg)",65%

# Source: US20220064214A1, “NOVEL PEPTIDES AND USES THEREOF” (CENNA BIOSCIENCES INC., priority 2019, published 2022)
